Assay results taken from the NIST ThermoML archive (doi:10.1016/j.jct.2014.02.024).

Assay: mn = molality of the nth substance listed, in mol/kg
Conditions: 101.3 kPa, Liquid; for viscosity: Capillary tube (Ostwald / Ubbelohde) method; for mass density: Pycnometric method

O=C(O)c1cccnc1 [3-carboxylpyridine] + O
Conditions | mass density [kg/m3] | viscosity [mPa·s]
275.15 K, m1 = 0.0098 | 1000.41 | 1.675
275.15 K, m1 = 0.0199 | 1000.84 | 1.685
275.15 K, m1 = 0.023 | 1000.96 | 1.687
275.15 K, m1 = 0.0249 | 1001.1 | 1.687
275.15 K, m1 = 0.0299 | 1001.29 | 1.691
275.15 K, m1 = 0.0349 | 1001.51 | 1.686
275.15 K, m1 = 0.0402 | 1001.76 | 1.691
275.15 K, m1 = 0.0429 | 1001.91 | 1.693
275.15 K, m1 = 0.0453 | 1002.02 | 1.694
275.15 K, m1 = 0.0497 | 1002.2 | 1.69
275.15 K, m1 = 0.055 | 1002.46 | 1.7
275.15 K, m1 = 0.06 | 1002.7 | 1.702
275.15 K, m1 = 0.0646 | 1002.87 | 1.704
275.15 K, m1 = 0.0701 | 1003.17 | 1.706
275.15 K, m1 = 0.0801 | 1003.54 | 1.715
277.15 K, m1 = 0.0094 | 1000.39 | 1.572
277.15 K, m1 = 0.0201 | 1000.87 | 1.574
277.15 K, m1 = 0.0231 | 1000.98 | 1.574
277.15 K, m1 = 0.025 | 1001.1 | 1.576
277.15 K, m1 = 0.0296 | 1001.29 | 1.577
277.15 K, m1 = 0.0399 | 1001.69 | 1.58
277.15 K, m1 = 0.043 | 1001.86 | 1.582
277.15 K, m1 = 0.0451 | 1001.97 | 1.583
277.15 K, m1 = 0.0499 | 1002.23 | 1.586
277.15 K, m1 = 0.055 | 1002.34 | 1.586
277.15 K, m1 = 0.06 | 1002.64 | 1.587
277.15 K, m1 = 0.0631 | 1002.69 | 1.591
277.15 K, m1 = 0.065 | 1002.84 | 1.591
277.15 K, m1 = 0.0705 | 1003.13 | 1.592
279.15 K, m1 = 0.0103 | 1000.39 | 1.474
279.15 K, m1 = 0.0198 | 1000.79 | 1.479
279.15 K, m1 = 0.0229 | 1000.95 | 1.485
279.15 K, m1 = 0.03 | 1001.23 | 1.489
279.15 K, m1 = 0.0351 | 1001.46 | 1.49
279.15 K, m1 = 0.04 | 1001.74 | 1.495
279.15 K, m1 = 0.0431 | 1001.79 | 1.494
279.15 K, m1 = 0.0454 | 1001.94 | 1.496
279.15 K, m1 = 0.0501 | 1002.16 | 1.499
279.15 K, m1 = 0.0551 | 1002.39 | 1.503
279.15 K, m1 = 0.06 | 1002.54 | 1.5
279.15 K, m1 = 0.0631 | 1002.68 | 1.502
279.15 K, m1 = 0.065 | 1002.79 | 1.503
279.15 K, m1 = 0.0701 | 1003.04 | 1.509

NC(=O)c1cccnc1 [3-pyridinecarboxamide] + O
Conditions | mass density [kg/m3] | viscosity [mPa·s]
275.15 K, m1 = 0.0101 | 1000.22 | 1.683
275.15 K, m1 = 0.0201 | 1000.53 | 1.687
275.15 K, m1 = 0.03 | 1000.83 | 1.691
275.15 K, m1 = 0.035 | 1001.02 | 1.697
275.15 K, m1 = 0.0401 | 1001.11 | 1.703
275.15 K, m1 = 0.0452 | 1001.26 | 1.707
275.15 K, m1 = 0.0502 | 1001.51 | 1.71
275.15 K, m1 = 0.0598 | 1001.74 | 1.711
275.15 K, m1 = 0.0651 | 1001.85 | 1.714
275.15 K, m1 = 0.07 | 1002.13 | 1.718
275.15 K, m1 = 0.0749 | 1002.21 | 1.724
275.15 K, m1 = 0.08 | 1002.41 | 1.721
275.15 K, m1 = 0.0852 | 1002.57 | 1.724
275.15 K, m1 = 0.1004 | 1002.93 | 1.73
277.15 K, m1 = 0.01 | 1000.25 | 1.578
277.15 K, m1 = 0.0202 | 1000.54 | 1.583
277.15 K, m1 = 0.03 | 1000.97 | 1.588
277.15 K, m1 = 0.0348 | 1000.98 | 1.59
277.15 K, m1 = 0.045 | 1001.27 | 1.595
277.15 K, m1 = 0.05 | 1001.42 | 1.598
277.15 K, m1 = 0.0601 | 1001.66 | 1.603
277.15 K, m1 = 0.0652 | 1001.86 | 1.605
277.15 K, m1 = 0.0691 | 1002 | 1.607
277.15 K, m1 = 0.075 | 1002.19 | 1.61
277.15 K, m1 = 0.0801 | 1002.29 | 1.612
277.15 K, m1 = 0.0849 | 1002.44 | 1.615
279.15 K, m1 = 0.02 | 1000.51 | 1.481
279.15 K, m1 = 0.0302 | 1000.82 | 1.482
279.15 K, m1 = 0.0347 | 1000.97 | 1.485
279.15 K, m1 = 0.0348 | 1000.92 | 1.485
279.15 K, m1 = 0.04 | 1001.13 | 1.487
279.15 K, m1 = 0.0451 | 1001.28 | 1.488
279.15 K, m1 = 0.05 | 1001.45 | 1.493
279.15 K, m1 = 0.0598 | 1001.7 | 1.495
279.15 K, m1 = 0.0699 | 1001.95 | 1.5
279.15 K, m1 = 0.0749 | 1002.04 | 1.504
279.15 K, m1 = 0.0799 | 1002.19 | 1.507
279.15 K, m1 = 0.0849 | 1002.36 | 1.51
279.15 K, m1 = 0.0897 | 1002.44 | 1.513
279.15 K, m1 = 0.1004 | 1002.78 | 1.52
